One data set has as its target T1, α1a (rat) adrenoreceptor (Rattus norvegicus, UniProt P43140).
T1 sequence (P43140 1-466): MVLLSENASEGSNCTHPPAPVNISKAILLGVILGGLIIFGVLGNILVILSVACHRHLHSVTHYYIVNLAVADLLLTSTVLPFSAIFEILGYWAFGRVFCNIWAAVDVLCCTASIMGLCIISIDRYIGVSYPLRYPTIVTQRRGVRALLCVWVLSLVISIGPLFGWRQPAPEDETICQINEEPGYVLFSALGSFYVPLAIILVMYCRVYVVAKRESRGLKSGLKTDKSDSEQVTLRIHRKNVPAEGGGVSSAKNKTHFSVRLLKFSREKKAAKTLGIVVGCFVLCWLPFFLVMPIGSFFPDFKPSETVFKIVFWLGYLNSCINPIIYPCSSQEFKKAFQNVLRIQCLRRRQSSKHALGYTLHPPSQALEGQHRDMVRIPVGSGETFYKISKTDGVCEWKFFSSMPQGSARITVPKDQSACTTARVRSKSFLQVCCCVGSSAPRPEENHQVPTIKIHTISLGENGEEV
Briefly: [3H]-prazosin radioligand binding, cloned α1a (rat) adrenoreceptor in LTK cells. The conditions noted are these: cloned receptor in LTK cell membranes, [3H]prazosin 0.2 nM. The source says: The cDNA clones encoding the α1, adrenoreceptors were obtained from TULCO (Triangle Universities Licensing Consortium, Research Triangle Park, N.C.) and inserted into the eukaryotic expression vector SnaB30. In this vector, expression of the adrenoreceptor gene is under the transcriptional control of an SV40 early promoter. Positive drug selection is provided by a neomycin-resistance gene. Mouse fibroblast cells (LTK) were transfected with the α1 expression plasmids and grown in Dulbecco's modified Eagle's medium (DMEM) containing 10% fetal calf serum and 30 μM G418. […] Stable single cell clones derived from the parental lines were screened in adrenoreceptor binding assays to identify clones having high adrenoreceptor density. Roller bottle cultures of the cloned lines were used to provide cell membranes for subsequent adrenoreceptor binding characterization studies. A cell line containing the SnaB30 vector expressing the human erythropoietin gene served as a negative control.
For adrenoreceptor binding assays, large scale membrane preparations were utilized in which 6 million cells were seeded into small (450 cm^2) Coming tissue culture roller bottles. DMEM (200 mL) containing 10% fetal calf serum and 300 μM G418 were added to each roller bottle. A 95% air/5% CO2 gas mixture (sterile) was injected into each roller bottle prior to sealing, and the bottles were then incubated at 37° C. on a roller rack for 5 days. Cells were refed with fresh medium after 3 days in culture.
On the fifth day of culture, growth medium was removed from cells grown in roller bottles, and the cells were washed twice with PBS (Sigma, 120 mM NaCl, 2.7 mM KCl, 10 mM Na2HPO4-NaH2PO4, pH=7.4). Cells were detached from the roller bottles by incubating for 15 minutes at 37° C. in a Tris-EDTA solution (10 mM Tris, 100 mM NaCl, 1 mM EDTA, pH=7.4). The cell suspension from each roller bottle was decanted into tared centrifuge tubes and kept on ice. An aliquot of each cell suspension was generally taken for cell counting. Cells were centrifuged at 3000×G for 5 minutes at 2-4° C., washed with PBS and recentrifuged. The supernatant was decanted, and the pellet was weighed to determine the wet weight of cells. Cells were washed a final time in 40 vol 5 mM Tris-HCl, 5 mM EDTA, pH=7.7 and centrifuged at 40,000×G for 10 minutes (“vol” indicates volume/weight, e.g., a “vol” of 40 would indicate that the one gram of cells were washed with 40 mls of buffer). Cells were homogenized in of 50 mM Tris-HCl, 5 mM EDTA (pH=7.4) (10 mL) and diluted to 40 mL/tube. Homogenates were centrifuged at 40,000×G for 10 minutes. The supernatant was decanted and the pellets rehomogenized in 50 mM Tris-HCl (pH=7.4) and centrifuged as before.
Following equilibration, bound radioligand was separated from free on GF/B filters (presoaked in 0.5% polyethyleneimine) using ither a Brandel or Packard cell harvester. Radioactivity was determined by standard liquid scintillation techniques.

Counter-ions that a name gives are not always drawn.

16 compounds from patent publication US6376488B1, “Benzoxazine α-1 adrenergic compounds” (Abbott Laboratories, priority 2000, dated 2002) can be followed below.

What is called Ki is a dissociation constant, usually derived from enzyme kinetics or from competition with a known ligand. Higher therefore signals weaker binding. Take `COc1cccc2c1N1CCN(CCCCn3c(=O)[nH]c4c(sc5cccnc54)c3=O)CC1CO2` (single isomer, unassigned; (+)) [Example 14, (+) 3-[4-(10-methoxy-1,2,4a,5-tetrahydropyrazino[2,1-c][1,4]benzoxazin-3(4H)-yl)butyl]pyido [2′,3′:4,5]thieno[3,2-d]pyrimidine-2,4(1H,3H)-dione trihydrochloride]: the affinity on α1a (rat) adrenoreceptor corresponds to a Ki of 0.29 nM. This lies in the sub-nanomolar range.

A word on the melting point: it is the temperature, or range, at which the solid turns liquid. For `Cl.Cl.O=c1[nH]c2c(sc3ncccc32)c(=O)n1CCCCN1CCN2c3ccccc3OCC2C1` (single isomer, unassigned; (-)) [Example 6, (−) 3-[4-(1,2,4a,5-tetrahydropyrazino[2,1-c][1,4]benzoxazin-3(4H)-yl)butyl]pyrido[3′, 2′:4,5]thieno[3,2-d]pyrimidine-2,4(1H,3H)-dione dihydrochloride], the melting point fell in the range of 290 to 293 °C. Besides, the Ki on α1a (rat) adrenoreceptor was found to be 9.83 nM. In turn, `COc1cccc2c1N1CCN(CCCn3c(=O)[nH]c4c(sc5cccnc54)c3=O)CC1CO2.Cl.Cl.Cl` (single isomer, unassigned; (+)) [Example 17, (+) 3-[3-(10-methoxy-1,2,4a,5-tetrahydropyrazino[2,1-c][1,4]benzoxazin-3(4H)-yl)propyl]pyrido[2′,3′:4,5]thieno[3,2-d]pyrimidine-2,4(1H,3H)-dione trihydrochloride] yielded a melting point of 219 to 224 °C. Besides, affinity at α1a (rat) adrenoreceptor was put at a Ki of 4.44 nM. `COc1cccc2c1N1CCN(CCn3c(=O)[nH]c4c(sc5cccnc54)c3=O)CC1CO2.Cl.Cl` (single isomer, unassigned; (-)) [Example 7, (−) 3-[2-(10methoxy-1,2,4a,5-tetrahydropyrazino[2,1-c][1,4]benzoxazin-3(4H)-yl)ethyl]pyrido[2′,3′:4,5]thieno[3,2-d]pyrimidine-2,4(1H,3H)-dione dihydrochloride]: the melting point lay within 297 to 298 °C. The compound also yielded a Ki at α1a (rat) adrenoreceptor of 0.864 nM. In the same order, the values of `COc1cccc2c1N1CCN(CCCCn3c(=O)[nH]c4c(sc5ncccc54)c3=O)CC1CO2.Cl.Cl.Cl` (single isomer, unassigned; (+)) [Example 15, (+) 3-[4-(10-methoxy-1,2,4a,5-tetrahydropyrazino[2,1-c][1,4]benzoxazin-3(4H)-yl)butyl]pyrido[3′,2′:4,5]thieno[3,2-d]pyrimidine-2,4(1H,3H)-dione trihydrochloride] are 225 to 230 °C and 0.447 nM. On α1a (rat) adrenoreceptor, `COc1cccc2c1N1CCN(CCCCn3c(=O)[nH]c4c(sc5ncccc54)c3=O)CC1CO2` (single isomer, unassigned; (-)) [Example 11, (−) 3-[4-(10-methoxy-1,2,4a,5-tetrahydropyrazino[2,1-c][1,4]benzoxazin-3(4H)-yl)butyl]pyrido[3′,2′:4.5]thieno[3,2-d]pyrimidine-2,4(1H,3H)-dione trihydrochloride] yielded an inhibition constant (Ki) of 0.24 nM.

With “(−) 3-[3-(10-methoxy-1,2,4a,5-tetrahydropyrazino[2,1-c][1,4]benzoxazin-3(4H)-yl)butyl]pyrido[2′,3′:4,5]thieno[3,2-d]pyrimidine-2,4(1H,3H)-dione trihydrochloride [Example 10]”, the Ki at α1a (rat) adrenoreceptor was 0.257 nM. This Ki and that of the compound before are within 1.5-fold of each other. Turning to `COc1cccc2c1N1CCN(CCCn3c(=O)[nH]c4c(sc5cccnc54)c3=O)CC1CO2.Cl.Cl.Cl` (single isomer, unassigned; (-)) [Example 9, (−) 3-[3-(10-methoxy-1,2,4a,5-tetrahydropyrazino[2,1-c][1,4]benzoxazin-3(4H)-yl)propyl]pyrido[2′,3′:4,5]thieno[3,2-d]pyrimidine-2,4(1H, 3H)-dione trihydrochloride], the melting point was 215 to 220 °C. Affinity on α1a (rat) adrenoreceptor was put at a Ki of 0.359 nM. In the same order, the values of `COc1cccc2c1N1CCN(CCn3c(=O)[nH]c4c(sc5ncc(Cl)nc54)c3=O)CC1CO2.Cl.Cl` (single isomer, unassigned; (+)) [Example 8, (+) 3-[2-(10-methoxy-1,2,4a,5-tetrahydropyrazino[2,1-c][1,4]benzoxazin-3(4H)-yl)ethyl]-8-chloropyrazino[2′,3′:4,5]thieno[3,2-d]pyrimidine-2,4(1H,3H)-dione dihydrochloride] are 280 to 283 °C and 1.78 nM. Taken in the same sequence, the figures for `Cl.Cl.O=c1[nH]c2c(sc3ncccc32)c(=O)n1CCCCN1CCN2c3ccccc3OCC2C1` (single isomer, unassigned; (+)) [Example 5, (+) 3-[4-(1,2,4a,5-tetrahydropyrazino[2,1-c][1,4]benzoxazin-3(4H)-yl)butyl]pyrido[3′, 2′:4,5]thieno[3,2-d]pyrimidine-2,4(1H,3H)-dione dihydrochloride] were 288 to 291 °C and 5.02 nM.

Compound `Cl.Cl.O=c1[nH]c2c(sc3cccnc32)c(=O)n1CCCN1CCN2c3ccccc3OCC2C1` (single isomer, unassigned; (+)) [Example 1, (+) 3-[3-(1,2,4a,5-tetrahydropyrazino[2,1-c][1,4]benzoxazin-3(4H)-yl)propyl]pyrido[2′,3′:4,5]thieno[3,2-d]pyrimidine-2,4(1H,3H)-dione dihydrochloride] came in with a melting point of 278 to 282 °C. On α1a (rat) adrenoreceptor, this compound showed an inhibition constant (Ki) of 1.84 nM. With `O=c1[nH]c2c(sc3cccnc32)c(=O)n1CCCCN1CCN2c3ccccc3OCC2C1` (single isomer, unassigned; (-)) [Example 4, (−) 3-[4-(1.2,4a,5-tetrahydropyrazino[2,1-c][1,4benzoxazin-3(4H)-yl)butyl]pyrido[2′,3′:4,5]thieno[3,2-d]pyrimidine-2,4(1H,3H)-dione dihydrochloride], at α1a (rat) adrenoreceptor, the affinity corresponds to a Ki of 6.62 nM.

In turn, `Cl.Cl.O=c1[nH]c2c(sc3cccnc32)c(=O)n1CCCCN1CCN2c3ccccc3OCC2C1` (single isomer, unassigned; (+)) [Example 3, (+) 3-[4-(1,2,4a,5-tetrahydropyrazino[2,1-c][1,4]benzoxazin-3(4H)-yl)butyl]pyrido[2′, 3′:4,5]thieno[3,2-d]pyrimidine-2,4(1H,3H)-dione dihydrochloride] had a melting point of 278 to 280 °C. Also, affinity on α1a (rat) adrenoreceptor was put at a Ki of 2.85 nM. With `COc1cccc2c1N1CCN(CCCCn3c(=O)[nH]c4c(sc5ncc(Cl)nc54)c3=O)CC1CO2.Cl.Cl` (single isomer, unassigned; (-)) [Example 12, (−) 3-[4-(10-methoxy-1,2,4a,5-tetrahydropyrazino[2,1-c][1,4]benzoxazin-3(4H)-yl)butyl]-8-chloropyrazino[2′,3′:4,5]thieno[3,2-d]pyrimidine-2,4(1H,3H)-dione dihydrochloride], the melting point fell in the range of 198 to 201 °C. The inhibition constant Ki on α1a (rat) adrenoreceptor is 0.648 nM. For `COc1cccc2c1N1CCN(CCn3c(=O)[nH]c4c(sc5ncc(Cl)nc54)c3=O)CC1CO2.Cl.Cl` (single isomer, unassigned; (-)) [Example 13, (−) 3-[2-(10-methoxy-1,2,4a,5-tetrahydropyrazino[2,1-c][1,4]benzoxazin-3(4H)-yl)ethyl]-8-chloropyrazino[2′,3′:4,5]thieno[3,2-d]pyrimidine-2,4(1H,3H)-dione dihydrochloride], the melting point was 280 to 282 °C. In addition, at α1a (rat) adrenoreceptor, the affinity corresponds to a Ki of 1.55 nM. In turn, `O=c1[nH]c2c(sc3cccnc32)c(=O)n1CCCN1CCN2c3ccccc3OCC2C1` (single isomer, unassigned; (-)) [Example 2, (−) 3-[3-(1,2,4a,5-tetrahydropyrazino[2,1-c][1,4]benzoxazin-3(4H)-yl)propyl]pyrido[2′,3′:4,5]thieno[3,2-d]pyrimidine-2,4(1H,3H)-dione dihydrochloride] showed an inhibition constant Ki on α1a (rat) adrenoreceptor of 19.3 nM.
